Measured values published in PubChem BioAssay (NCI).
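Where inhibition never reached the appropriate level, the endpoint shown equals the highest concentration tested. Otherwise, values were interpolated linearly from a five-concentration, 48-hour dose response in 96-well plates. GI50 = concentration required for 50% inhibition of growth. Definition used: TGI = concentration required for complete inhibition of growth.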

Columns and labels:
Assay in all cases: growth of human tumour cells (NCI), 48 h
EKVX NSCLC = system: EKVX NSCLC
BT-549 breast = system: BT-549 breast
MDA-MB-435 = system: MDA-MB-435
MCF7 breast = system: MCF7 breast
NCI/ADR-RES ovarian = system: NCI/ADR-RES ovarian
U251 CNS = system: U251 CNS
SW-620 colon = system: SW-620 colon
HL-60(TB) leukemia = system: HL-60(TB) leukemia
MDA-MB-231 breast = system: MDA-MB-231 breast
HCC-2998 colon = system: HCC-2998 colon
ACHN renal = system: ACHN renal
K-562 leukemia = system: K-562 leukemia
SR leukemia = system: SR leukemia
HT29 colon = system: HT29 colon
IGROV1 ovarian = system: IGROV1 ovarian
UACC-62 melanoma = system: UACC-62 melanoma
OVCAR-8 ovarian = system: OVCAR-8 ovarian
M14 melanoma = system: M14 melanoma
T-47D breast = system: T-47D breast
CCRF-CEM leukemia = system: CCRF-CEM leukemia
SNB-75 CNS = system: SNB-75 CNS
NCI-H460 lung = system: NCI-H460 lung
HOP-92 NSCLC = system: HOP-92 NSCLC
UACC-257 melanoma = system: UACC-257 melanoma
RXF 393 renal = system: RXF 393 renal
RPMI-8226 leukemia = system: RPMI-8226 leukemia
NCI-H23 lung = system: NCI-H23 lung
CAKI-1 renal = system: CAKI-1 renal
TK-10 renal = system: TK-10 renal
LOX IMVI melanoma = system: LOX IMVI melanoma
SK-MEL-28 melanoma = system: SK-MEL-28 melanoma
SK-OV-3 ovarian = system: SK-OV-3 ovarian
SF-268 CNS = system: SF-268 CNS
SF-539 CNS = system: SF-539 CNS
OVCAR-5 ovarian = system: OVCAR-5 ovarian
NCI-H226 lung = system: NCI-H226 lung
HOP-62 NSCLC = system: HOP-62 NSCLC
MOLT-4 leukemia = system: MOLT-4 leukemia
SK-MEL-5 melanoma = system: SK-MEL-5 melanoma
HCT-116 colon = system: HCT-116 colon
A549 NSCLC = system: A549 NSCLC
HS 578T breast = system: HS 578T breast
OVCAR-3 ovarian = system: OVCAR-3 ovarian
PC-3 prostate = system: PC-3 prostate
OVCAR-4 ovarian = system: OVCAR-4 ovarian
MALME-3M melanoma = system: MALME-3M melanoma
KM12 colon = system: KM12 colon
COLO 205 colon = system: COLO 205 colon
DU-145 prostate = system: DU-145 prostate
786-0 renal = system: 786-0 renal
MDA-N = system: MDA-N
HCT-15 colon = system: HCT-15 colon
SK-MEL-2 melanoma = system: SK-MEL-2 melanoma
SF-295 CNS = system: SF-295 CNS
UO-31 renal = system: UO-31 renal
SN12C renal = system: SN12C renal
SNB-19 CNS = system: SNB-19 CNS
NCI-H522 lung = system: NCI-H522 lung

O=C(OCCN=C1c2ccccc2CCc2ccccc21)c1ccccc1
TGI (EKVX NSCLC): > 100 µM
TGI (BT-549 breast): > 100 µM
TGI (MDA-MB-435): > 100 µM
TGI (MCF7 breast): > 100 µM
TGI (NCI/ADR-RES ovarian): > 100 µM
TGI (U251 CNS): > 100 µM
TGI (SW-620 colon): > 100 µM
TGI (HL-60(TB) leukemia): > 100 µM
TGI (MDA-MB-231 breast): > 100 µM
TGI (HCC-2998 colon): > 100 µM
TGI (ACHN renal): > 100 µM
TGI (K-562 leukemia): > 100 µM
TGI (SR leukemia): 50.2 µM
TGI (HT29 colon): > 100 µM
TGI (IGROV1 ovarian): > 100 µM
TGI (UACC-62 melanoma): > 100 µM
TGI (OVCAR-8 ovarian): > 100 µM
TGI (M14 melanoma): > 100 µM
TGI (T-47D breast): > 100 µM
TGI (CCRF-CEM leukemia): > 100 µM
TGI (SNB-75 CNS): > 100 µM
TGI (NCI-H460 lung): > 100 µM
TGI (HOP-92 NSCLC): > 100 µM
TGI (UACC-257 melanoma): > 100 µM
TGI (RXF 393 renal): > 100 µM
TGI (RPMI-8226 leukemia): 34.2 µM
TGI (NCI-H23 lung): > 100 µM
TGI (CAKI-1 renal): > 100 µM
TGI (TK-10 renal): > 100 µM
TGI (LOX IMVI melanoma): > 100 µM
TGI (SK-MEL-28 melanoma): > 100 µM
TGI (SK-OV-3 ovarian): > 100 µM
TGI (SF-268 CNS): > 100 µM
TGI (SF-539 CNS): > 100 µM
TGI (OVCAR-5 ovarian): > 100 µM
TGI (NCI-H226 lung): > 100 µM
TGI (HOP-62 NSCLC): > 100 µM
TGI (MOLT-4 leukemia): 39 µM
TGI (SK-MEL-5 melanoma): > 100 µM
TGI (HCT-116 colon): > 100 µM
TGI (A549 NSCLC): > 100 µM
TGI (HS 578T breast): > 100 µM
TGI (OVCAR-3 ovarian): > 100 µM
TGI (PC-3 prostate): > 100 µM
TGI (OVCAR-4 ovarian): > 100 µM
TGI (MALME-3M melanoma): > 100 µM
TGI (KM12 colon): > 100 µM
TGI (COLO 205 colon): > 100 µM
TGI (DU-145 prostate): > 100 µM
TGI (786-0 renal): > 100 µM
TGI (MDA-N): > 100 µM
TGI (HCT-15 colon): > 100 µM
TGI (SK-MEL-2 melanoma): > 100 µM
TGI (SF-295 CNS): > 100 µM
TGI (UO-31 renal): > 100 µM
TGI (SN12C renal): > 100 µM
TGI (SNB-19 CNS): > 100 µM

COc1cc(O)c2c(=O)c(OC)c(-c3ccc(OC)c(OC)c3)oc2c1.[Co]
GI50 (EKVX NSCLC): > 100 µM
TGI (EKVX NSCLC): > 100 µM
TGI (BT-549 breast): > 100 µM
TGI (MDA-MB-435): > 100 µM
GI50 (MCF7 breast): > 100 µM
TGI (MCF7 breast): > 100 µM
GI50 (NCI/ADR-RES ovarian): > 100 µM
TGI (NCI/ADR-RES ovarian): > 100 µM
TGI (U251 CNS): > 100 µM
TGI (SW-620 colon): > 100 µM
TGI (HL-60(TB) leukemia): > 100 µM
GI50 (MDA-MB-231 breast): 18.1 µM
TGI (MDA-MB-231 breast): > 100 µM
GI50 (HCC-2998 colon): > 100 µM
TGI (HCC-2998 colon): > 100 µM
GI50 (ACHN renal): 56.9 µM
TGI (ACHN renal): > 100 µM
GI50 (K-562 leukemia): 75.5 µM
TGI (K-562 leukemia): > 100 µM
GI50 (SR leukemia): 5.29 µM
TGI (SR leukemia): > 100 µM
GI50 (HT29 colon): > 100 µM
TGI (HT29 colon): > 100 µM
GI50 (IGROV1 ovarian): > 100 µM
TGI (IGROV1 ovarian): > 100 µM
GI50 (UACC-62 melanoma): 32.3 µM
TGI (UACC-62 melanoma): > 100 µM
GI50 (OVCAR-8 ovarian): > 100 µM
TGI (OVCAR-8 ovarian): > 100 µM
GI50 (M14 melanoma): > 100 µM
TGI (M14 melanoma): > 100 µM
GI50 (T-47D breast): 10.7 µM
TGI (T-47D breast): > 100 µM
TGI (SNB-75 CNS): > 100 µM
TGI (NCI-H460 lung): > 100 µM
GI50 (HOP-92 NSCLC): 31.8 µM
TGI (HOP-92 NSCLC): > 100 µM
TGI (RXF 393 renal): > 100 µM
TGI (RPMI-8226 leukemia): > 100 µM
GI50 (NCI-H23 lung): > 100 µM
TGI (NCI-H23 lung): > 100 µM
TGI (CAKI-1 renal): > 100 µM
TGI (TK-10 renal): > 100 µM
GI50 (LOX IMVI melanoma): > 100 µM
TGI (LOX IMVI melanoma): > 100 µM
GI50 (SK-MEL-28 melanoma): > 100 µM
TGI (SK-MEL-28 melanoma): > 100 µM
TGI (SK-OV-3 ovarian): > 100 µM
GI50 (SF-268 CNS): 38.4 µM
TGI (SF-268 CNS): > 100 µM
TGI (SF-539 CNS): > 100 µM
GI50 (OVCAR-5 ovarian): > 100 µM
TGI (OVCAR-5 ovarian): > 100 µM
TGI (NCI-H226 lung): > 100 µM
GI50 (HOP-62 NSCLC): 34.5 µM
TGI (HOP-62 NSCLC): > 100 µM
GI50 (MOLT-4 leukemia): 9.92 µM
TGI (MOLT-4 leukemia): > 100 µM
GI50 (SK-MEL-5 melanoma): 70.3 µM
TGI (SK-MEL-5 melanoma): > 100 µM
GI50 (HCT-116 colon): 61.6 µM
TGI (HCT-116 colon): > 100 µM
TGI (A549 NSCLC): > 100 µM
TGI (HS 578T breast): > 100 µM
GI50 (OVCAR-3 ovarian): > 100 µM
TGI (OVCAR-3 ovarian): > 100 µM
GI50 (PC-3 prostate): 66.7 µM
TGI (PC-3 prostate): > 100 µM
GI50 (OVCAR-4 ovarian): 13.1 µM
TGI (OVCAR-4 ovarian): > 100 µM
GI50 (MALME-3M melanoma): 51.4 µM
TGI (MALME-3M melanoma): > 100 µM
GI50 (KM12 colon): > 100 µM
TGI (KM12 colon): > 100 µM
TGI (COLO 205 colon): > 100 µM
GI50 (DU-145 prostate): > 100 µM
TGI (DU-145 prostate): > 100 µM
TGI (NCI-H522 lung): 35.1 µM
TGI (786-0 renal): > 100 µM
TGI (MDA-N): > 100 µM
GI50 (SF-295 CNS): 16.2 µM
TGI (SF-295 CNS): > 100 µM
TGI (UO-31 renal): > 100 µM
TGI (SN12C renal): > 100 µM
